From US20200383985A1, “Inhibitors of Protease Activated Receptor-2” (Endosome Therapeutics, Inc., priority 2017, published 2020)
Where two headings read alike, the source gives them in different places.

Key:
mice = assay: Visceromotor response (VMR) to colorectal distension (CRD); assay type: in vivo, mouse; conditions: 30 mg/kg, 100 μL enema into the colon, 30 min before the protease mixture
Procedure: Noxious colorectal distension (CRD) triggers the visceromotor response (VMR), a nociceptive brainstem reflex consisting of contraction of abdominal muscles, which can be monitored by electromyography. This approach allows assessment of visceral sensitivity in awake mice (Castro, J. et al., Br. J. Pharmacol. 2017, 175(12): 2384-2398). To examine protease-induced hy-persensitivity, a protease mixture (10 nM trypsin+100 nM NE+100 nM CS) or vehicle (saline) (100 μL) was instilled into the colon (enema) of healthy mice. After 15 min, the VMR was measured in response to graded CRD (20-80 mm Hg) with a barostat balloon. In vehicle-treated mice, CRD induced a graded VMR (FIG. 9I). […] Because alterations in the compliance of the colon can alter VMR to CRD, the pressure/volume relationship was measured at all distending pressures. Compliance of the colon was unaffected by the protease mixture or I-343 (FIGS. 21E and F). […]
Electromyography (EMG) of abdominal muscles was used to monitor VMR to CRD (Eichel, K. et al., Nat. Cell Biol. 2016, 18(3): 303-310). […] The EMG signal was recorded (NL100AK headstage), amplified (NL104), filtered (NL 125/126, Neurolog, Digitimer Ltd, bandpass 50-5000 Hz), and digitized (CED 1401, Cambridge Electronic Design) for off-line analysis using Spike2 (Cambridge Electronic Design). […]

PAR2 = target: T1, PAR2 (Homo sapiens, UniProt P55085); assay: IP1 accumulation assay in HEK293 cells (endogenous PAR2); assay type: cell-based; conditions: trypsin (30 nM)
T1 construct: HT-29 cells and HEK293 cells, which express endogenous PAR2; endogenous in cells; host or cells: HT-29
T1 sequence (P55085 26-397): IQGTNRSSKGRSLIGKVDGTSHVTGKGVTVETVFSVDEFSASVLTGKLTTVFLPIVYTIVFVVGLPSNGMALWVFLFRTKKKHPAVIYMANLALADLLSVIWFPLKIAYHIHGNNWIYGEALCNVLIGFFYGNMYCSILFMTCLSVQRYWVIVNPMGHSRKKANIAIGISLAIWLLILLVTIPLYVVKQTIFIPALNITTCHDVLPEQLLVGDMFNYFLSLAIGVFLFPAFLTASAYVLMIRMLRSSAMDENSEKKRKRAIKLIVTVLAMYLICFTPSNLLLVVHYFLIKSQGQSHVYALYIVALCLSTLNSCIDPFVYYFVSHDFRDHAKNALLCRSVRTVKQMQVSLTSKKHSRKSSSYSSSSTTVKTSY
Procedure: Inhibition of PAR2 signaling with known PAR2 inhibitor I-343 (FIG. 14A) was investigated in HT-29 cells and HEK293 cells, which express endogenous PAR2, and in KNRK cells expressing human (h) PAR2. Accumulation of inositol phosphate-1 (IP1) was measured in response to the PAR2-selective agonist 2-Furoyl-LIGRLO-NH2 (2F), an analogue of the trypsin-exposed tethered ligand, or trypsin.
KNRK-hPAR2, KNRK, HEK293, or HT-29 cells were seeded at a density of 50×10^3 cells/well onto clear 96-well plates (PerkinElmer). After 24 h of culture, medium was replaced with IP1 stimulation buffer (10 mM HEPES, 1 mM CaCl2, 0.5 mM MgCl2, 4.2 mM KCl, 146 mM NaCl, 5.5 mM glucose, 50 mM LiCl; 37° C., 5% CO2.). Cells were pre-incubated with the antagonist or vehicle for 30 min prior to the addition of agonist. Cells were then further incubated for 40 min. Stimulation buffer was […]

IC50 (PAR2; read-out: IC50, trypsin-induced IP1 in HEK293 cells): 0.4 nM
IC50 (PAR2; read-out: pIC50, trypsin-induced IP1 in HEK293 cells (converted)): 0.437 nM
SMILES: Cc1nc(C(=O)N2CCN(C(=O)c3cn4nc(-c5ccc(F)cc5)cc(C(C)(C)C)c4n3)C(C)(C)C2)n[nH]1 [Compound I-343, (8-(tert-butyl)-6-(4-fluorophenyl)imidazo[1,2-b]pyridazin-2-yl)(2,2-dimethyl-4-(5-methyl-1H-1,2,4-triazole-3-carbonyl)piperazin-1-yl)methanone]
protease mixture-amplified VMR to CRD (mice): abolished the response
